Reference: PubChem BioAssay AID463229 (Broad Institute, 2010)
The source made the active and inactive calls.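 The calls were made as follows: active = compounds raising the signal whose fitted half-maximal concentration is at or below their top tested dose (cut at about 25 µM in these data); inconclusive = flat fit at 30 to 70% activity, or a poor fit; inactive = the rest.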

test system: INS-1E rat beta cells, no cytokines, CellTiter-Glo ATP, 48 h; assay: cytokine-free beta-cell viability effect – INS-1E rat cells, ATP luminescence, cherry pick, counter-screen for beta-cell apoptosis protection project, dose response (AID 463229)

SMILES | AC50
COc1cc2cc(C(=O)N3CCOCC3)cc(-c3ccc(C)cc3)c2cc1OC | 5.15 µM
CN1CCN(c2ccc([N+](=O)[O-])c3no[n+]([O-])c23)CC1 | 1.9 µM
Cc1[nH]n(-c2ccccc2)c(=O)c1N=Nc1c(O)cc(S(=O)(=O)N(C)C)c2ccccc12 | 3.72 µM
Cn1c(SCC(=O)N/N=C/c2ccc([N+](=O)[O-])s2)nnc1-c1ccccc1 | 5.11 µM
CCOC(=O)c1c(NC(=O)/C=C/C(=O)O)sc(C)c1-c1ccc(C(C)(C)C)cc1 | 7.17 µM
Oc1cccc(/C=N/Nc2ccc(Cl)nn2)c1O | 4.69 µM
Fc1ccccc1N=C1NN=C(c2ccccc2)CS1 | 4.95 µM
O=C(Nc1cccc(S(=O)(=O)Nc2ccc(Cl)cc2)c1)c1ccc(Cl)nc1 | 4.6 µM
Cc1ccc(C)n1-c1ccc(C(=O)Nc2ccccc2)cc1 | > 26 µM (inactive)
N#CC(c1ccc(Cl)cc1)c1ccc2c(C(F)(F)F)cc(C(F)(F)F)nc2n1 (stereo unspecified) | 0.898 µM
N/C(=N\OC(=O)c1cccc(Cn2cc(C(F)(F)F)ccc2=O)c1)c1ccccc1 | 7.71 µM
Cc1csc2ncnc(NCCc3ccccn3)c12 | 6.88 µM
Cc1nc2ccccn2c1C(=O)/C=C/c1cccc([N+](=O)[O-])c1 | 7.93 µM
C/C(=N\NC(=O)C(=O)Nc1cccc(Cl)c1)c1ccncc1 | 6.53 µM
O=C(C[C@@H]1C/C=C/CC[C@H](Cc2ccc(F)cc2)C(=O)OC[C@@H](Cc2ccccc2)NC1=O)N[C@H](CO)Cc1ccccc1 | 7.82 µM
Cc1cc(O)c2c(c1)C(=O)C13C(=C2O)C(=O)[C@H]2[C@@H](O)[C@@H]1[C@H]1[C@H](O)[C@@H]3C(=O)C3=C(O)c4c(O)cc(C)cc4C(=O)C312 (stereo partly specified) | 4.68 µM
O=C(Nc1cccc(NC(=O)c2cc([N+](=O)[O-])ccc2Cl)n1)c1cc([N+](=O)[O-])ccc1Cl | 14.8 µM
COc1cc(Br)cc(/C=N/NC(=O)Cc2ccc(C(F)(F)F)cc2[N+](=O)[O-])c1O | 14.7 µM
COc1ccc(CC(=O)Nc2cccc(S(=O)(=O)N3CCCCCC3)c2)cc1OC | 10 µM
Oc1ccc(CNc2ccccc2)c2cccnc12 | 22.8 µM
CCCCCCSc1ccc([C@H]2N[C@@](Cc3ccccc3)(C(=O)OC)[C@H]3C(=O)N(C)C(=O)[C@@H]23)cc1 | 14.6 µM

SMILES | AC50
O=C(/C=C/c1ccccc1)NC(=S)NNC(=O)c1cnccn1 | 5.91 µM
CCCCNc1c(-c2ccc(SC3CCCCC3)cc2)nc2ccccn12 | 5.31 µM
Cc1cc(C(C)(C)C)cc(C)c1Cn1c2[n+](c3ccc(C(F)(F)F)cc31)CCCCC2 | 4.19 µM
Cc1onc(-c2ccccc2)c1C(=O)NC(=S)NNC(=O)c1ccc(O)cc1O | 0.657 µM
COc1cc(/C=N/NC(=O)c2cccnc2)ccc1OC(=O)c1cc(OC)c(OC)c(OC)c1 | 2.51 µM
C/C(=N\NC(=O)c1ccccc1OCc1ccc(F)cc1)c1ccccn1 | 8.35 µM
COc1ccc(C2/C=C\CN(C(=O)c3ccccc3)[C@H](Cc3ccccc3)C(=O)N2Cc2ccc(F)cc2)cc1 (stereo partly specified) | 7.75 µM
CC(=O)C1=C(c2ccc(Br)cc2)C(=O)c2ccccc2C1=O | 3.63 µM
Cc1cccnc1CN1CCN(C(=O)c2cc(COc3ccc4ncccc4c3)on2)CC1 | 5.44 µM
C1CCC(C(CC2CCCCN2)C2CCCCC2)CC1 (stereo unspecified) | 9.74 µM
O=[N+]([O-])c1ccc(Sc2cccc3cccnc23)c([N+](=O)[O-])c1 | 14.5 µM
c1ccc2c(CNC3CCCCC3)c[nH]c2c1 | 6.79 µM
CS(=O)(=O)c1ncc(Cl)c(C(=O)Nc2ccc(OC(F)F)cc2)n1 | 11.6 µM
COc1ccc(C(=O)/C(C#N)=N/Nc2ccc([N+](=O)[O-])cc2)cc1 | 2.15 µM
COc1cccc(/C=N/NC(=O)c2[nH]nc3c2CCc2ccccc2-3)c1O | 4.25 µM
Cc1ccc(C(=O)OCn2ncc(Cl)c(Cl)c2=O)cc1 | 7.77 µM
CCCC(=O)NC(c1ccc(Cl)cc1Cl)c1ccc2cccnc2c1O (stereo unspecified) | 2.3 µM
Cc1cccc(N2C(=S)N=C(Nc3c(C)cccc3C)C23CCOC(C)(C)C3)c1 (stereo unspecified) | 3.79 µM
CC1=C(C)/C(=N\OS(=O)(=O)c2ccccc2)C=CC1=O | 4.13 µM
CC1CCC(C(C)C)C(OC(=O)C[n+]2cc(-c3ccc(Cl)cc3)n3c2CCCCC3)C1 (stereo unspecified) | 7.32 µM
